In ChEMBL document CHEMBL6092124, “Design, synthesis and biological evaluation of novel cyano-cinnamate derivatives as mitochondrial pyruvate carrier inhibitors” (Bioorg Med Chem Lett, 2024) one finds Activity data, which are given here for 23 compounds.

Structures are written as SMILES. Calls of active or inactive are those of the source. The rule behind the calls is not given here.

Test [1] concerns MCF-10A. Put plainly: Inhibition of MPC in human MCF-10A cells assessed as lactate concentration at 10 uM measured for 36 hrs. Format: cell-based.
In test [2] the test system is MCF-10A. Put plainly: Inhibition of MPC in human MCF-10A cells assessed as cellular lactate production measured per 10^6 cells at 10 uM measured for 36 hrs. Format: cell-based.
The species entered for test [3] is Mus musculus. The test can be described thus: Induction of hair growth in C57BL/6J mouse assessed as appearance of hair growth patches measured on day 17. Format: functional, organism-based. Particulars: time 17.0 day.
The species entered for test [4] is Mus musculus. Put plainly: Induction of hair growth in C57BL/6J mouse assessed as increase in pigmentation measured after 10 days. Format: functional, organism-based. Particulars: time 10.0 day.
The test system of test [5] is MCF-10A. Put plainly: Inhibition of MPC in human MCF-10A cells assessed as cellular lactate production measured per 10^6 cells measured for 36 hrs. Format: cell-based. Particulars: dose 10.0 µM.

Regarding `N#C/C(=C\c1cn(-c2cccnc2)c2ccccc12)C(=O)O`, the Activity was 0.251 µmol/mL in the test on MCF-10A [1] and 0.06 µmol with MCF-10A [2].
In the same order, the values of `CCOC(=O)/C(C#N)=C/c1cn(-c2cncnc2)c2ccccc12` are 0.025 µmol/mL and 0.006 µmol.
In the same order, the values of `CCOC(=O)/C(C#N)=C/c1cn(-c2ccccn2)c2ccccc12` are 0.625 µmol/mL and 0.148 µmol.
Take `N#C/C(=C\c1cn(Cc2ccccn2)c2ccccc12)C(=O)O`: the Activity is 1.35 µmol/mL with MCF-10A [1], “Active; Drug Entered To Anagen Phase” in the test listed under Mus musculus [4] and 0.322 µmol in the test with MCF-10A [2]. Besides, the outcome in the test listed under Mus musculus [3] was Active.
Consider `N#C/C(=C\c1cn(-c2ccccn2)c2ccccc12)C(=O)O`, for which the Activity in the test on MCF-10A [1] is 0.489 µmol/mL; in the test on MCF-10A [2], 0.116 µmol.
Turning to `CCOC(=O)/C(C#N)=C/c1cn(-c2ccc3ccccc3c2)c2ccccc12`, the Activity in the test on MCF-10A [1] worked out at 0.438 µmol/mL; in the test on MCF-10A [2] it was 0.104 µmol.
Take `CCOC(=O)/C(C#N)=C/c1cn(Cc2ccncc2)c2ccccc12`: the Activity was -0.02 µmol/mL in the test with MCF-10A [1] and -0.005 µmol in the test on MCF-10A [2].
Consider `N#C/C(=C\c1cn(Cc2ccncc2)c2ccccc12)C(=O)O`, for which the Activity in the test with MCF-10A [1] is -0.337 µmol/mL; in the test on MCF-10A [2] it was -0.08 µmol.
Consider `N#C/C(=C\c1cn(-c2cncnc2)c2ccccc12)C(=O)O`, for which the values for the Activity in the test with MCF-10A [1] and in the test on MCF-10A [2] were 0.546 µmol/mL and 0.13 µmol, respectively.
Turning to `N#C/C(=C\c1cn(-c2ccncc2)c2ccccc12)C(=O)O`, the results for the Activity with MCF-10A [1] and in the test with MCF-10A [2] were 0.059 µmol/mL and 0.014 µmol, respectively.
`N#C/C(=C\c1cn(-c2ncccn2)c2ccccc12)C(=O)O`: the values for the Activity in the test with MCF-10A [1] and with MCF-10A [2] were 0.421 µmol/mL and 0.1 µmol, respectively.
As to `CCOC(=O)/C(C#N)=C/c1cn(-c2cccnc2)c2ccccc12`, the results for the Activity in the test on MCF-10A [1] and in the test on MCF-10A [2] were 0.138 µmol/mL and 0.033 µmol, respectively.
Take `N#C/C(=C\c1cn(-c2ccccc2)c2ccccc12)C(=O)O`: the Activity with MCF-10A [1] is 0.778 µmol/mL; with MCF-10A [5] it was “Dose-dependent-effect”; in the test with MCF-10A [2], 0.185 µmol. Moreover, the outcome in the test listed under Mus musculus [3] was Active.
Regarding `CCOC(=O)/C(C#N)=C/c1cn(-c2ncccn2)c2ccccc12`, the Activity in the test with MCF-10A [1] is 0.342 µmol/mL; with MCF-10A [2], 0.081 µmol.
In the case of `N#C/C(=C\c1cn(Cc2ccc3ccccc3c2)c2ccccc12)C(=O)O`, the Activity in the test on MCF-10A [1] was determined as 1.23 µmol/mL; with MCF-10A [2], 0.292 µmol.
For the compound `N#C/C(=C\c1cn(-c2ccc3ccccc3c2)c2ccccc12)C(=O)O`, the values for the Activity in the test with MCF-10A [1] and in the test on MCF-10A [2] were 0.517 µmol/mL and 0.123 µmol, respectively.
The like results for `CCOC(=O)/C(C#N)=C/c1cn(Cc2cccnc2)c2ccccc12` were, in that order, 0.874 µmol/mL and 0.208 µmol.
For the compound `CCOC(=O)/C(C#N)=C/c1cn(Cc2ccc3ccccc3c2)c2ccccc12`, the Activity worked out at 0.268 µmol/mL with MCF-10A [1] and 0.064 µmol in the test with MCF-10A [2].
Take `CCOC(=O)/C(C#N)=C/c1cn(Cc2ccccn2)c2ccccc12`: the results for the Activity with MCF-10A [1] and with MCF-10A [2] were -0.128 µmol/mL and -0.03 µmol, respectively.
For `N#C/C(=C\c1cn(Cc2cccnc2)c2ccccc12)C(=O)O`, the Activity with MCF-10A [1] is 0.393 µmol/mL; in the test on MCF-10A [2], 0.093 µmol.
Consider `CCOC(=O)/C(C#N)=C/c1cn(-c2ccncc2)c2ccccc12`, for which the Activity was 0.025 µmol/mL with MCF-10A [1] and 0.006 µmol in the test with MCF-10A [2].
On to `Cn1cnc(-n2cc(/C=C(\C#N)C(=O)O)c3ccccc32)c1`, for which the Activity is -0.003 µmol/mL in the test with MCF-10A [1] and -0.001 µmol with MCF-10A [2].
Take `CCOC(=O)/C(C#N)=C/c1cn(-c2cn(C)cn2)c2ccccc12`: the Activity with MCF-10A [1] is 0.64 µmol/mL; in the test with MCF-10A [2], 0.152 µmol.
